Calls of active or inactive are those of the source.
Assays:
[1] = system: Burkholderia pseudomallei; experiment: Attenuation of Burkholderia pseudomallei KHW cytotoxicity in THP1 cells at 8 ug/ml in presence of 250 uM prochlorperazine; type: functional, organism-based; settings: THP-1
[2] = system: Burkholderia pseudomallei; experiment: Antimicrobial activity against Burkholderia pseudomallei KHW in presence of 31.3 uM chlorpromazine; type: functional
[3] = system: Burkholderia pseudomallei; experiment: Attenuation of Burkholderia pseudomallei KHW cytotoxicity in THP1 cells at 8 ug/ml in presence of 500 uM chlorpromazine; type: functional, organism-based; settings: THP-1
[4] = system: Burkholderia pseudomallei; experiment: Antimicrobial activity against Burkholderia pseudomallei KHW in presence of 125 uM promazine; type: functional
[5] = system: Burkholderia pseudomallei; experiment: Attenuation of THP1 cell invasion by Burkholderia pseudomallei KHW at 8 ug/ml in presence of 500 uM chlorpromazine; type: functional, organism-based; settings: THP-1
[6] = system: Burkholderia pseudomallei; experiment: Antimicrobial activity against Burkholderia pseudomallei KHW in presence of 1000 uM promazine; type: functional
[7] = system: Burkholderia pseudomallei; experiment: Antimicrobial activity against Burkholderia pseudomallei KHW in presence of 7.8 uM promazine; type: functional
[8] = system: Burkholderia pseudomallei; experiment: Antimicrobial activity against Burkholderia pseudomallei KHW in presence of 7.8 uM prochlorperazine; type: functional
[9] = system: Burkholderia pseudomallei; experiment: Antimicrobial activity against Burkholderia pseudomallei KHW in presence of 250 uM prochlorperazine; type: functional
[10] = system: Burkholderia pseudomallei; experiment: Antimicrobial activity against Burkholderia pseudomallei KHW in presence of 31.3 uM omeprazole; type: functional
[11] = system: Burkholderia pseudomallei; experiment: Attenuation of THP1 cell invasion by Burkholderia pseudomallei KHW at 8 ug/ml; type: functional, organism-based; settings: THP-1
[12] = system: Burkholderia pseudomallei; experiment: Antimicrobial activity against Burkholderia pseudomallei KHW in presence of 7.8 uM omeprazole; type: functional
[13] = system: Burkholderia pseudomallei; experiment: Antimicrobial activity against Burkholderia pseudomallei KHW in presence of 62.5 uM chlorpromazine; type: functional
[14] = system: Burkholderia pseudomallei; experiment: Attenuation of Burkholderia pseudomallei KHW cytotoxicity in A549 cells at 8 ug/ml in presence of 250 uM prochlorperazine; type: functional, organism-based
[15] = system: Burkholderia pseudomallei; experiment: Antimicrobial activity against Burkholderia pseudomallei KHW in presence of 3.9 uM chlorpromazine; type: functional
[16] = system: Burkholderia pseudomallei; experiment: Antimicrobial activity against Burkholderia pseudomallei KHW in presence of 31.3 uM prochlorperazine; type: functional
[17] = system: Burkholderia pseudomallei; experiment: Antimicrobial activity against Burkholderia pseudomallei KHW in presence of 15.6 uM chlorpromazine; type: functional
[18] = system: Burkholderia pseudomallei; experiment: Antimicrobial activity against Burkholderia pseudomallei KHW in presence of 250 uM omeprazole; type: functional
[19] = system: Burkholderia pseudomallei; experiment: Antimicrobial activity against Burkholderia pseudomallei KHW; type: functional
[20] = system: Burkholderia pseudomallei; experiment: Antimicrobial activity against Burkholderia pseudomallei KHW in presence of 15.6 uM promazine; type: functional
[21] = system: Burkholderia pseudomallei; experiment: Antimicrobial activity against Burkholderia pseudomallei KHW in presence of 62.5 uM promazine; type: functional
[22] = system: Burkholderia pseudomallei; experiment: Antimicrobial activity against Burkholderia pseudomallei KHW in presence of 3.9 uM promazine; type: functional
[23] = system: Burkholderia pseudomallei; experiment: Antimicrobial activity against Burkholderia pseudomallei KHW in presence of 31.3 uM promazine; type: functional
[24] = system: Burkholderia pseudomallei; experiment: Antimicrobial activity against Burkholderia pseudomallei KHW in presence of 1000 uM prochlorperazine; type: functional
[25] = system: Burkholderia pseudomallei; experiment: Antimicrobial activity against Burkholderia pseudomallei KHW in presence of 3.9 uM prochlorperazine; type: functional
[26] = system: Burkholderia pseudomallei; experiment: Antimicrobial activity against Burkholderia pseudomallei KHW in presence of 1000 uM chlorpromazine; type: functional
[27] = system: Burkholderia pseudomallei; experiment: Antimicrobial activity against Burkholderia pseudomallei KHW in presence of 1000 uM omeprazole; type: functional
[28] = system: Burkholderia pseudomallei; experiment: Attenuation of A549 cell invasion by Burkholderia pseudomallei KHW at 8 ug/ml in presence of 250 uM prochlorperazine; type: functional, organism-based
[29] = system: Burkholderia pseudomallei; experiment: Antimicrobial activity against Burkholderia pseudomallei KHW in presence of 15.6 uM prochlorperazine; type: functional
[30] = system: Burkholderia pseudomallei; experiment: Antimicrobial activity against Burkholderia pseudomallei KHW in presence of 125 uM chlorpromazine; type: functional
[31] = system: Burkholderia pseudomallei; experiment: Antimicrobial activity against Burkholderia pseudomallei KHW in presence of 250 uM promazine; type: functional
[32] = system: Burkholderia pseudomallei; experiment: Attenuation of A549 cell invasion by Burkholderia pseudomallei KHW at 8 ug/ml in presence of 500 uM chlorpromazine; type: functional, organism-based
[33] = system: Burkholderia pseudomallei; experiment: Attenuation of Burkholderia pseudomallei KHW cytotoxicity in THP1 cells at 128 ug/ml; type: functional, organism-based; settings: THP-1
[34] = system: Burkholderia pseudomallei; experiment: Antimicrobial activity against Burkholderia pseudomallei KHW in presence of 500 uM omeprazole; type: functional
[35] = system: Burkholderia pseudomallei; experiment: Antimicrobial activity against Burkholderia pseudomallei KHW in presence of 15.6 uM omeprazole; type: functional
[36] = system: Burkholderia pseudomallei; experiment: Attenuation of THP1 cell invasion by Burkholderia pseudomallei KHW at 128 ug/ml; type: functional, organism-based; settings: THP-1
[37] = system: Burkholderia pseudomallei; experiment: Antimicrobial activity against Burkholderia pseudomallei KHW in presence of 62.5 uM omeprazole; type: functional
[38] = system: Burkholderia pseudomallei; experiment: Antimicrobial activity against Burkholderia pseudomallei KHW in presence of 500 uM chlorpromazine; type: functional
[39] = system: Burkholderia pseudomallei; experiment: Antimicrobial activity against Burkholderia pseudomallei KHW in presence of 125 uM omeprazole; type: functional
[40] = system: Burkholderia pseudomallei; experiment: Antimicrobial activity against Burkholderia pseudomallei KHW in presence of 3.9 uM omeprazole; type: functional
[41] = system: Burkholderia pseudomallei; experiment: Attenuation of A549 cell invasion by Burkholderia pseudomallei KHW at 128 ug/ml; type: functional, organism-based
[42] = system: Burkholderia pseudomallei; experiment: Antimicrobial activity against Burkholderia pseudomallei KHW in presence of 500 uM prochlorperazine; type: functional
[43] = system: Burkholderia pseudomallei; experiment: Attenuation of Burkholderia pseudomallei KHW cytotoxicity in A549 cells at 128 ug/ml; type: functional, organism-based
[44] = system: Burkholderia pseudomallei; experiment: Attenuation of Burkholderia pseudomallei KHW cytotoxicity in A549 cells at 8 ug/ml in presence of 500 uM chlorpromazine; type: functional, organism-based
[45] = system: Burkholderia pseudomallei; experiment: Attenuation of A549 cell invasion by Burkholderia pseudomallei KHW at 8 ug/ml; type: functional, organism-based
[46] = system: Burkholderia pseudomallei; experiment: Attenuation of THP1 cell invasion by Burkholderia pseudomallei KHW at 8 ug/ml in presence of 250 uM prochlorperazine; type: functional, organism-based; settings: THP-1
[47] = system: Burkholderia pseudomallei; experiment: Antimicrobial activity against Burkholderia pseudomallei KHW in presence of 7.8 uM chlorpromazine; type: functional

CC[C@H]1OC(=O)[C@H](C)[C@@H](O[C@H]2C[C@@](C)(OC)[C@@H](O)[C@H](C)O2)[C@H](C)[C@@H](O[C@@H]2O[C@H](C)C[C@H](N(C)C)[C@H]2O)[C@](C)(O)C[C@@H](C)C(=O)[C@H](C)[C@@H](O)[C@]1(C)O [ERYTHROMYCIN]
inactive: Activity [11] | Activity [45]
< 0.25 µg/mL: MIC [6] | MIC [26] | MIC [27]
8 µg/mL: MIC [9] | MIC [24] | MIC [38] | MIC [42]
128 µg/mL: MIC [2] | MIC [4] | MIC [7] | MIC [8] | MIC [10] | MIC [12] | MIC [13] | MIC [15] | MIC [17] | MIC [18] | MIC [19] | MIC [20] | MIC [21] | MIC [22] | MIC [23] | MIC [25] | MIC [30] | MIC [34] | MIC [35] | MIC [37] | MIC [39] | MIC [40] | MIC [47]
64 µg/mL: MIC [16] | MIC [29] | MIC [31]
active: Activity [1] | Activity [3] | Activity [5] | Activity [14] | Activity [28] | Activity [32] | Activity [33] | Activity [36] | Activity [41] | Activity [43] | Activity [44] | Activity [46]
